For five compounds, IC50 results are on record in patent publication US20240415819A1, “MACROCYCLIC COMPOUNDS AS PROTEASOME SUBUNIT BETA TYPE-5 INHIBITORS” (Lead Discovery Center GmbH, priority 2021, published 2024).

For experiment [1], the system named is MDA-MB-468 (breast carcinoma). Nature of the experiment: 48 hr CTG viability assay, MDA-MB-468. The note with it: Homo sapiens. In kind it is cell-based. The method, then: A viability assay was conducted for 48 hours to evaluate the inhibition of cancer cell growth by proteasome inhibitors. Briefly, the candidate cell line was plated with a 96-well plate following density of cells, respectively. 6×10^3 Cells/well for A2780 (human ovarian cancer cell line) and MDA-MB-468 (breast carcinoma), 8×10^3 Cells/well for Hs746T (human gastric carcinoma cell line), 1.1×10^4 Cells/well for MM1 S and RPMI 8226 (multiple myeloma). After 24 hours, the cells were treated with various concentrations of the compound (ranging from 0.0015 uM to 10 uM). […] After 48 hours of incubation at 37° C., 5% CO2 incubator, cells were analyzed for viability using the CellTiter-Glo Luminescent Cell Viability assay (Promega, Cat #G7570). All viability assays were performed in duplicate and Luminescence was read using an Envision (Perkin Elmer, USA). Data were analyzed using XLfit software. […] (human gastric carcinoma cell line), MM1 S (B lymphoblast cell line), and RPMI 8226 (B lymphocyte cell line, multiple myeloma). Inhibition is indicated as IC50 [nM] (“-”=not measured).

Experiment [2] has as its target T1, β5 subunit of the human immunoproteasome (IPS) (Homo sapiens, UniProt P28062).
T1 construct: purchased Boston Biochem E-370
Briefly: β5 inhibition assay, human immunoproteasome (Suc-LLVY-AMC). The note with it: IC50 class, Suc-LLVY-AMC substrate. In kind it is biochemical. The method in brief: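 Human immunoproteasome (1 nM final) was preincubated 10 min at RT with compound in 100 mM HEPES pH 7.5, 50 mM NaCl, 0.02% SDS, 1 mM DTT. Suc-LLVY-AMC (22.6 μM final) was then added for 4 h at RT in the dark. After stopping with 1 μM bortezomib, AMC fluorescence was read (ex 355/em 460 nm).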

The test system of experiment [3] is RPMI 8226 (B lymphocyte cell line, multiple myeloma). Nature of the experiment: 48 hr CTG viability assay, RPMI 8226. Particulars: Homo sapiens, RPMI-8226; 48 hr CTG; read-out: RPMI-8226 IC50. Type of experiment: cell-based. In a few lines: (§1)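 Growth inhibition by compound over 48 h; IC50 (nM) derived from duplicate CellTiter-Glo luminescence readings across 0.0015–10 uM.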

Experiment [4] relates to Hs 746T (human gastric carcinoma cell line). Briefly: 48 hr CTG viability assay, Hs 746T. In kind it is cell-based. The note with it: Hs746T, 48 hr CTG, read-out: Hs 746T IC50. The method in brief: as §1
In experiment [5] the target is T2, β5 subunit of the human constitutive proteasome (CPS) (Homo sapiens, UniProt P28074).
T2 construct: purchased Boston Biochem E-360
Briefly: β5 inhibition assay, human constitutive proteasome (Suc-LLVY-AMC). The note with it: IC50 class, Suc-LLVY-AMC substrate. In kind it is biochemical. The method, then:
The enzymatic activity of the β5 subunit of the human constitutive proteasome (CPS) is analyzed. In another assay, which differs from the assay of the human constitutive proteasome only in using the human immunoproteasome (IPS) the enzymatic activity of the β5 subunit of the human immunoproteasome (IPS) is analyzed. […] Inhibition is indicated as IC50 [nM] (“-”=not measured).

Experiment [6] has as its system MM1 S (B lymphoblast cell line). Nature of the experiment: 48 hr CTG viability assay, MM1S. Type of experiment: cell-based. The note with it: Homo sapiens, 48 hr CTG, read-out: MM1S IC50. In a few lines:
as §1

The subject of experiment [7] is A549 (human lung carcinoma cell line). Briefly: Glo assay of A549 cells (Table 3; ProteasomeGlo plating scheme). Type of experiment: cell-based. The note with it: Homo sapiens; A549 cells; read-out: PGLo A549. In a few lines:
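Cells plated in 384 wells; compound, DMSO, staurosporine transferred by ECHO; 105 min, 37° C., 5% CO2; Proteasome-Glo (Suc-LLVY-Glo) reagent added; dark 10-15 min; luminescence; IC50 nM.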

For experiment [8], the system named is B-cells isolated from PBMC's. Briefly: Chymotrypsin-like ProteasomeGlo assay in B-cells isolated from PBMCs. In kind it is cell-based, human. Particulars: Homo sapiens; B-cells isolated from PBMC's; read-out: Pglo B-Cell. The source says:
PBMC's will be isolated from human blood followed by B-cell isolation from the PBMC's using the Miltenyi Isolation Kit. • 2. This experiment will use the Chymotrypsin-like ProteasomeGlo read-out to generate IC50's following compound treatment. • 3. Dilute all compounds 1:100 for the assay. • 4. […] Repeat the DMSO transfer with lane 12. • 5. Lane 12 should not be seeded with any cells. Only medium! • 6. For all steps, make sure the samples and reagents remain cool! • 7. While dealing with the buffy coats, be careful to not let any exposed skin to be in direct contact with the blood. […] PBMC isolation followed by B-cell isolation using the Miltenyi Kit • Day 2: B-cell plating, ECHO transfer and ProteasomeGlo assay For the initial steps and to make processing the buffy coats easier, separately process the buffy coats. • a. Cut the tube attached to the buffy coats carefully using a clean, sterile and fresh scalpel. • b. Transfer the blood into 2 individual 50 ml falcons. • c. Add an equal volume of DPBS to the blood in the falcons. • d. Add 20 ml of lymphocyte separating medium to two 50 ml falcons. • e. Carefully pour 15-20 ml of the blood+DPBS mix from step c. onto the lymphocyte separating medium from step d. • f. Centrifuge the falcons with the lymphocyte separating medium+blood mix at 800×g for 15 minutes using a swing-out rotor. • g. Following centrifugation, carefully remove the falcons from the centrifuge. • h. The following layers will be observed: • i. Aspirate the plasma layer off carefully without disturbing the different layers. • j. Remove the cell pellet using a pipette into two fresh 50 ml falcons. • k. Fill the falcons with the cells up to 50 ml with DPBS. • l. Centrifuge the falcons at 250×g for 10 minutes using a swing-out rotor (Brake-off). • m. Aspirate the complete DPBS off the cells without disturbing the cell pellet at the bottom of the falcon. • n. Re-suspend the cell pellet in 10 ml of 1×RBC lysis buffer. • o. Incubate the falcons at room temperature in the dark for 10 minutes. • p. After RBC lysis, centrifuge the tubes at 250×g for 10 minutes using a swing-out rotor (brake-off). • (*Note: If the cell pellet is still red or light red, repeat steps n. to p.!) • q. Re-suspend the cell pellet in DPBS up to 50 ml in the falcon. • r. Centrifuge the falcons at 250×g for 10 minutes using a swing-out rotor (Brake-off). • s. Aspirate the DPBS off the cells without disturbing the cell pellet at the bottom of the falcon. • t. Repeat the wash step as described in steps q. to s. 2× times more (total number of washes is 3×). • u. Aspirate the DPBS completely off the cell pellet after the last wash without disturbing the cell pellet. • v. Re-suspend the cell pellet in 20 ml of PBMC cell medium. • w. […] Re-suspend the pellet in volume of the B-cell isolation buffer calculated as follows: • k. Mix well using a 1 ml pipette and incubate the mix on ice for 20 mins. • l. In the meantime, equilibrate one LS Column as follows: • 1. Insert one LS Column into one slot of the separator as depicted in the pictures above. • 2. Place a 50 ml falcon at the bottom of the LS column to collect the wash flow-through. • 3. Add 3 ml of the B-cell isolation buffer into the column. • 4. Allow the buffer to flow-through making sure that the entire volume passes the column and that the column reservoir is empty before the addition of the cells. • 5. Remove the falcon with the flow-through and discard. • m. Place a fresh 50 ml falcon under the LS Column to collect the untouched B-cells isolated from the PBMCs. • n. Apply the entire volume of the cell+antibody+microbeads mix to the LS Column. • o. Collect the flow-through from each application of the mix into the same 50 ml falcon under the LS Column. • p. Once the complete volume of the cell+antibody+microbead mix has been passed through, proceed to washing of the column. • q. Add 3 ml of the B-cell isolation buffer to the LS Column and allow the buffer to flow-through. […]

For experiment [9], the system named is HT-29 cells. Briefly: CellTiter-Glo luminescent cell viability assay with HT-29 cells (72h incubation). The note with it: Homo sapiens, HT-29, HT29 cells, read-out: CTG HT29. Type of experiment: cell-based, human. In a few lines: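 400 cells per well in DMEM/10% FCS were dosed after 24 h and kept 72 h at 37 °C, 5% CO2. ATP-based luminescence (CellTiter-Glo) normalized to DMSO and 10 μM staurosporine controls; IC50 by dose-response fit.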

Experiment [10] deals with Karpas cells. Nature of the experiment: Glo assay of Karpas cells (Table 3; ProteasomeGlo plating scheme). Type of experiment: cell-based. The note with it: read-out: Pglo Karpas. An excerpt: Inhibition is indicated as IC50 [nM] (“-”=not measured). […] • Chymotrypsin-Like Cell-Based Proteasome-GloTM Assay (Promega; […]) • Cell culture 384-well plates (Greiner BioOne; 781080) • Dispensing cassette, MultiDrop Standard tube dispensing cassette (Thermo Scientific; 24072670) • DPBS (Pan BioTech; P04-36500) • Cell culture 384-well plates (Greiner BioOne; 781080) • CPD source plate: diamond-shape plate (Labcyte; LP-0200) • Intermediate plate (Labcyte; P-05525) [table] • a. Remove the plates with cells from the incubator. • b. Take all the plates including the compound plate, intermediate plate and Staurosporine plate to the ECHO. • c. Click on “Open” in the ECHO software and select the protocol “QLI5_25ul_30 uM-Grenier”. • d. Follow the on-screen prompts and instructions once you click “Start” to insert the compound plate, intermediate plate and destination plates. • e. Change the final number of destination plates on the program. • f. Follow the on-screen prompts and instructions once you click “Start” to load the Staurosporine and destination plates. • g. Once all the compounds, DMSO and Staurosporine have been transferred, place the destination plates in a wet tissue box. • h. Place the destination plates back into the incubator and incubate at 37° C., 5% CO2 for 105 minutes. • i. Re-seal all the compound+Stauro diamond and intermediate plates and store in the dark. Chymotrypsin like ProteasomeGlo Assay • 1. Thaw the components of the ProteasomeGlo assay at room temperature including the ProteasomeGlo Buffer, the lyophilized Luciferin Detection Reagent and the Suc-LLVY-Glo Substrate. • 2. Reconstitute the Luciferin Detection Reagent in the amber coloured bottle by adding 50 ml of the ProteasomeGlo Buffer. • 3. Vortex the Suc-LLVY-Glo Substrate briefly to reconstitute the Substrate well. • 4. Spin down the Substrate and add 250 μl of the Substrate to the reconstituted Luciferin Detection Reagent from step 2. • 5. Briefly vortex the amber bottle with the mix to prepare a homogenous solution. • 6. Place the mix prepared in step 5 to sit at room temperature for 60 minutes. • 7. After 60 minutes, pipette 25 μl of the mix from step 5 into all wells with the cells. • 8. Shake the plates for 2-5 minutes to ensure the complete mixing of the ProteasomeGlo reagent with the cells. • 9. Leave the plates in the dark for 10-15 minutes. • 10. Measure the luminescence read-out using the Viktor and the protocol “Luminescence_384Well_0.2 sec”. (Note: The Protoeasome-GloTM Reagent (combined Proteasome-GloTM Substrate, Proteasome-GloTM Buffer and Luciferin Detection Reagent) can be stored at 4° C. or -20° C. for 1 month with minimal loss of activity.)

pIC50: −log10 of the molar value. A value given as a limit tells only on which side of the number the result lay.

In the case of `Cc1ccc2cc1CNC(=O)[C@H](CCc1ccccc1)NC(=O)[C@@H](NC(=O)C(C)(C)CO)CCC(=O)NCCCO2` [Compound 732, 3-hydroxy-2,2-dimethyl-N-((10S,13S)-1^4-methyl-7,11,14-trioxo-13-phenethyl-2-oxa-6,12,15-triaza-1(1,3)-benzenacyclohexadecaphane-10-yl)propanamide], the pIC50 in [1] is 5.30 to 6.00; in experiment [2], above 7.00; in experiment [3], 6.00 to 6.30; in [4], below 5.30; in experiment [5] it was above 7.00; in [6], 5.30 to 6.00. The pIC50 in [7] was 5.30 to 6.00.

With `Cc1cc(C)c2cc1CNC(=O)[C@H](CCc1ccccc1)NC(=O)CCC(=O)N1CCCC(CCO2)C1` (stereo partly drawn) [Compound 59, (9R)-5^4,5^6-dimethyl-9-phenethyl-4-oxa-7,10-diaza-1(3,1)-piperidina-5(1,3)-benzenacyclotetradecaphane-8,11,14-trione], the pIC50 in experiment [8] was 6.30 to 7.00; in experiment [9], 5.30 to 6.00.

Turning to `Cc1ccc2cc1CNC(=O)[C@H](CCc1ccccc1)NC(=O)[C@@H](NC(=O)C1(CO)CCOCC1)CC(=O)N1CCCC(CCO2)C1` (stereo partly drawn) [Compound 671, 4-(hydroxymethyl)-N-((9S,12S)-5^4-methyl-8,11,14-trioxo-9-phenethyl-4-oxa-7,10-diaza-1(3,1)-piperidina-5(1,3)-benzenacyclotetradecaphane-12-yl)tetrahydro-2H-pyran-4-carboxamide], the pIC50 in experiment [1], in [2], in experiment [3], in experiment [4], in [5] and in [6] was above 7.00 throughout. Besides, the pIC50 in experiment [7] is above 7.00.

Take `Cc1ccc2cc1CNC(=O)[C@H](CCc1ccccc1)NC(=O)CCCC(=O)N1CCCC(CCO2)C1` (stereo partly drawn) [Compound 19, (9S)-5^4-methyl-9-phenethyl-4-oxa-7,10-diaza-1(3,1)-piperidina-5(1,3)-benzenacyclopentadecaphane-8,11,15-trione]: the pIC50 was above 7.00 in experiment [2]; 6.00 to 6.30 in [10]; above 7.00 in [5]; 5.30 to 6.00 in [7]; 5.30 to 6.00 in experiment [9].

On to `Cc1ccc2cc1CNC(=O)[C@H](CCc1ccccc1)NC(=O)[C@@H](NC(=O)Cc1ccc(NC(=O)[C@@H](N)CCC(=O)O)cc1C)CC(=O)N1CCCC(CCO2)C1` (stereo partly shown) [Compound 574], for which the pIC50 in experiment [1], in experiment [3], in [4] and in experiment [6] was above 7.00 each time.
